The values that follow come from patent publication US10683307B2, “Compounds for use in antibacterial applications” (GLAXOSMITHKLINE INTELLECTUAL PROPERTY DEVELOPMENT LIMITED, priority 2015, dated 2020).

The structures appear in SMILES notation. Where a name gives a salt, the structure may show the parent alone. Read-outs that look alike come from different tables or passages of the source.

Among the test systems are Streptococcus pyogenes; Staphylococcus aureus; Bacteroides caccae; Streptococcus agalactiae; Bacteroides fragilis; Bacteroides ovatus; Enterococcus faecalis.
Holding throughout (format): cell-based
The test system of another experiment is Burkholderia cepacia. Further details: unit not given beside the values. The settings on record: unit not given.
The test system of a further experiment is Bacillus anthracis. The experiment can be described thus: microbe, parasite or virus in culture.
Another experiment concerns Francisella tularensis. The experiment can be described thus: microbe, parasite or virus in culture.
The subject of a further experiment is Streptococcus pneumonia. The settings on record: Streptococcus pneumoniae.
The next experiment relates to Yersinia pestis. The experiment can be described thus: microbe, parasite or virus in culture.
The test system of experiment [1] is Mycobacterium tuberculosis H37Rv. As to the kind of experiment: Mycobacterium Tuberculosis H37Rv Inhibition Assay. The settings on record: H37Rv strain, Middlebrook 7H9+ADC, resazurin fluorescence; for MIC: H37RV.
The test system of the next experiment is citrobacter spp. The settings on record: Table 1 column L = citrobacter spp; unit inferred.
For a further experiment, the system named is Providencia rettgeri. The settings on record: Table 1 column O = Providencia rettgeri; unit inferred.
Experiment [2] deals with Bacteroides thetaiotamicron.
Experiment [3] relates to Burkholderia pseudomallei. The settings on record: Table 3 column E4 = Burkholderia pseudomallei.
The next experiment concerns Serratia marcescens. The settings on record: Table 1 column N = Serratia marcescens; unit inferred.
The next experiment has as its system Burkholderia mallei. The settings on record: Table 3 column D4 = Burkholderia mallei.
Another experiment deals with E. faecium. The settings on record: G1 = E. faecium.
The next experiment relates to Moraxella catarrhalis. The settings on record: unit inferred.
A further experiment has as its system Legionella pneumophila. The settings on record: Table 1 column G = Legionella pneumophila; unit inferred.

Take `COc1cnc2ccc(F)c(CN[C@H]3CC[C@H](NCc4cnc5c(n4)NC(=O)CO5)C[C@H]3O)c2n1.Cl` [Compound W, 6-({[(1S,3R,4S)-4-{[(6-fluoro-3-methoxyquinoxalin-5-yl)methyl]amino}-3-hydroxycyclohexyl]amino}methyl)-2H,3H,4H-pyrazino[2,3-b][1,4]oxazin-3-one]: the MIC90 against Streptococcus pyogenes was no more than 0.125 µg/mL; against Burkholderia cepacia, no more than 16; against Bacillus anthracis (Bacillus anthracis) it was no more than 0.5 µg/mL; in the experiment with Francisella tularensis (Francisella tularensis), no more than 0.125 µg/mL; in the experiment on Staphylococcus aureus it was no more than 0.125 µg/mL; against Streptococcus pneumonia, no more than 0.5 µg/mL. Moreover, in the experiment with Yersinia pestis (Yersinia pestis), the MIC90 was no more than 0.125 µg/mL.

In [1], `COc1cnc2ccc(F)c(CN[C@H]3CC[C@H](NCc4cnc5c(n4)NC(=O)CO5)C[C@H]3O)c2n1.Cl` [Compound W, HCl salt, 6-(((1S,3R,4S)-4-((7-Fluoro-2-methoxyquinoxalin-8-yl)methylamino)-3-hydroxycyclohexylamino)methyl)-2H-pyrazino[2,3-b][1,4]oxazin-3(4H)-one Hydrochloride] displayed an MIC of no more than 0.02 µg/mL.

For the molecule `COc1ccc2ccc(=O)n(CCN3C[C@H](CNCc4cnc5c(n4)NC(=O)CS5)[C@H](O)C3)c2n1` [Compound Y, HCl salt, 1-{2-[(3S,4S)-3-hydroxy-4-{[({3-oxo-2H,3H,4H-pyrazino[2,3-b][1,4]thiazin-6-yl}methyl)amino]methyl}pyrrolidin-1-yl]ethyl}-7-methoxy-1,2-dihydro-1,8-naphthyridin-2-one], the MIC in experiment [1] is no more than 0.02 µg/mL.

In turn, `Cn1cc(C(=O)O)c(=O)c2c(CC[C@H]3CC[C@H](NCc4cnc5c(n4)NC(=O)CS5)CC3)c(F)cc(F)c21` [Compound Z, TFA salt, 6,8-difluoro-1-methyl-4-oxo-5-(2-((1r,4s)-4-(((3-oxo-3,4-dihydro-2H-pyrazino [2,3-b][1,4]thiazin-6-yl)methyl)amino)cyclohexyl)ethyl)-1,4-dihydroquinoline-3-carboxylic acid] displayed an MIC in experiment [1] of no more than 0.1 µg/mL.

On to `COc1cnc2ccc(F)c(CNC3CCC(NCc4cnc5c(n4)NC(=O)CO5)CC3)c2n1.Cl` [Formula (V) HCl salt, 6-((((1R,4R)-4-(((6-fluoro-3-methoxyquinoxalin-5-yl)methyl)amino)cyclohexyl)amino)methyl)-2H-pyrazino[2,3-b][1,4]oxazin-3(4H)-one, Hydrochloride], for which the MIC90 in the experiment with citrobacter spp was no more than 0.25 µg/mL; in the experiment with Providencia rettgeri, no more than 0.5 µg/mL; in the experiment on Burkholderia cepacia it was no more than 8; in experiment [3], no more than 4 µg/mL; with Streptococcus agalactiae it was no more than 2 µg/mL; against Bacillus anthracis (Table 3 column B4 = Bacillus anthracis) it was no more than 0.25 µg/mL. Moreover, the MIC90 is no more than 4 µg/mL in the experiment with Serratia marcescens, no more than 4 µg/mL with Burkholderia mallei, no more than 0.5 µg/mL with Francisella tularensis (Table 3 column C4 = Francisella tularensis) and no more than 0.12 µg/mL with Yersinia pestis (Table 3 column A4 = Yersinia pestis). The minimal inhibitory concentration (MIC) in experiment [2] was no more than 1 µg/mL; in the experiment on Bacteroides caccae it was no more than 4 µg/mL; against Bacteroides fragilis it was no more than 0.5 µg/mL; in the experiment on Bacteroides ovatus, no more than 2 µg/mL. Also, the “H37Rv MIC” value in experiment [1] was no more than 0.3 µg/mL.

As for `COc1cnc2ccc(F)c(CN[C@H]3CC[C@H](NCc4cnc5c(n4)NC(=O)CO5)CC3)c2n1` [Formula (V) free base, 6-((((1R,4R)-4-(((6-fluoro-3-methoxyquinoxalin-5-yl)methyl)amino)cyclohexyl)amino)methyl)-2H-pyrazino[2,3-b][1,4]oxazin-3(4H)-one], the MIC90 in the experiment with Enterococcus faecalis (read-out: MIC90) is no more than 0.5 µg/mL; in the experiment on E. faecium (Enterococcus faecium, read-out: MIC90), no more than 0.5 µg/mL; in the experiment with Moraxella catarrhalis, less than 0.016 µg/mL. In experiment [1], this molecule came in with an MIC of no more than 0.02 µg/mL.

For `COc1cnc2ccc(F)c(CN[C@@H]3CC[C@@H](NCc4cnc5c(n4)NC(=O)CO5)C[C@@H]3O)c2n1.Cl` [Formula (VI) HCl salt, 6-((((1R,3S,4R)-4-(((6-fluoro-3-methoxyquinoxalin-5-yl)methyl)amino)-3-hydroxycyclohexyl)amino)methyl)-2H-pyrazino[2,3-b][1,4]oxazin-3(4H)-one Hydrochloride], the MIC90 with Streptococcus pyogenes was no more than 0.063 µg/mL; against Burkholderia cepacia, no more than 8; against Bacillus anthracis (Bacillus anthracis) it was no more than 0.25 µg/mL; with Francisella tularensis (Francisella tularensis) it was no more than 0.063 µg/mL; against Staphylococcus aureus, no more than 0.125 µg/mL; in the experiment with Streptococcus pneumonia, no more than 0.25 µg/mL. In the experiment on Yersinia pestis (Yersinia pestis), this molecule returned an MIC90 of no more than 0.125 µg/mL. In [1], this molecule returned an MIC of no more than 0.02 µg/mL.

In the case of `COc1ccc2ncc(=O)n(CCN3CC[C@@H](CNCc4ncc5c(n4)NC(=O)CO5)C3)c2n1` [Formula (VII) HCl salt, 2-({[((3S)-1-{2-[6-(methyloxy)-3-oxopyrido[2,3-b]pyrazin-4(3H)-yl]ethyl}-3-pyrrolidinyl)methyl]amino}methyl)-1H-pyrimido[5,4-b][1,4]oxazin-7(6H)-one], the MIC90 against citrobacter spp was no more than 0.5 µg/mL; in the experiment with Providencia rettgeri, no more than 1 µg/mL; in the experiment with Enterococcus faecalis (read-out: MIC90), no more than 0.5 µg/mL; against Burkholderia cepacia it was no more than 16; against Legionella pneumophila, no more than 0.06 µg/mL; with E. faecium, no more than 0.5 µg/mL. Also, the MIC90 against Bacillus anthracis (Bacillus anthracis) was no more than 0.12 µg/mL; in the experiment with Serratia marcescens, no more than 2 µg/mL; against Francisella tularensis (Francisella tularensis), no more than 0.03 µg/mL; with Moraxella catarrhalis, less than 0.016 µg/mL; with Yersinia pestis (Yersinia pestis) it was no more than 0.12 µg/mL. The MIC in experiment [1] was no more than 0.3 µg/mL.

As for `COc1ccc2ncc(=O)n(CCN3CC[C@@H](CNCc4ncc5c(n4)NC(=O)CO5)C3)c2n1` [Formula (VII) free base, 2-({[((3S)-1-{2-[6-(methyloxy)-3-oxopyrido[2,3-b]pyrazin-4(3H)-yl]ethyl}-3-pyrrolidinyl)methyl]amino}methyl)-1H-pyrimido[5,4-b][1,4]oxazin-7(6H)-one], the MIC90 in the experiment with Enterococcus faecalis was no more than 0.25 µg/mL; in the experiment with Burkholderia cepacia, no more than 8; with E. faecium, no more than 0.125 µg/mL; against Moraxella catarrhalis it was less than 0.016 µg/mL. Besides, the “H37Rv MIC” value in experiment [1] was no more than 0.16 µg/mL.
